Assay results published in patent US12059422B2 (MEI Pharma, Inc., priority 2011, dated 2024).

Legend:
[1] = target: PI3Kα (Homo sapiens, UniProt P42336); test: ELISA assay for PI3Kα: in-cell ELISA, phosphorylation of AKT (Thr308) in MDA-MB-453 cells; format: cell-based; conditions: cellular, pAKT (Thr308), IGF-1 stimulation, read-out: IC50 p110α
Procedure: PI3K alpha (PI3Kα) activity was determined by measuring the phosphorylation of AKT (Thr308) using an in-cell ELISA assay. MDA-MB-453 (breast carcinoma) cells were obtained from ATCC (ATCC #HTB-131). Growth medium was DMEM (CellGro #CV-10-013-CV) supplemented with 10% fetal bovine serum, 100 IU/mL penicillin, 100 μg/mL streptomycin, and 1×MEM non-essential amino acids. Phosphate buffered saline (PBS) contained 2.7 M NaCl, 54 mM KCl, 86 mM […] (dibasic, anhydrous), and 28 mM […] (monobasic, anhydrous) at pH 7.2. Stimulation mixture (10×) was 1000 ng/mL LONG® R^3 human IGF-1 (Sigma #I1271) diluted in serum-free DMEM medium (CellGro #CV-10-013-CV). Compounds for testing were dissolved and serially diluted in 100% DMSO (total of 10 concentrations), then diluted in serum-free DMEM to 2× final assay concentration. Fixative solution (2×) was 8% formaldehyde (Amresco #M134) diluted in PBS. Permeabilization solution was PBS supplemented with 0.1% Triton X-100. Blocking buffer was obtained from LiCor (LiCor #927-40000). Wash buffer was PBS supplemented with 0.1% Tween-20. Primary antibody solution was rabbit anti-pAKT^T308 monoclonal antibody (Cell Signaling #2965) and mouse anti-total S6 (Santa Cruz #74459) diluted 1:500 and 1:2000, respectively, in the blocking buffer. Secondary antibody solution was IRDye 800CW-conjugated goat anti-rabbit IgG (LiCor #926-32211) and IRDye 680LT-conjugated goat anti-mouse IgG (LiCor #926-68020) diluted 1:1000 and 1:2000, respectively, in the blocking buffer.
MDA-MB-453 cells were subcultured in growth medium and seeded into flat, clear bottom, 96-well plates (Corning #3904) at 40000 cells/well, then incubated overnight in a 5% CO2 incubator at 37° C. Growth medium in plates was replaced with 100 μL/well serum-free DMEM and incubated overnight at 37° C. in a 5% CO2 incubator. Fresh serum-free DMEM (50 μL/well) was added to plates. Compound treatment was performed by adding 50 μL/well of 2× compound mixture to plates and incubating for 1 hr at 37° C. and 5% CO2, after which 11 μL/well of 10× stimulation mixture was added and plates were incubated for 10 min at 37° C. and 5% CO2. Fixation was performed by adding 110 μL/well of 2× fixative solution to the plates and incubating for 20 min at room temperature. Permeabilization was performed by replacing fixation solution with 150 μL/well permeabilization solution and incubating for 10 min at room temperature. Permeabilization was repeated (for a total of 2 times). Permeabilization solution was replaced with 100 μL/well blocking buffer and plates were incubated for 1 hour at room temperature, after which 100 μL/well of primary antibody solution was added and plates were incubated overnight at 4° C. Plates were washed with wash buffer, after which 100 μL/well of secondary antibody solution was added to the plates and incubated in the dark for 1 hr at room temperature. Plates were washed with wash buffer, followed by a wash with PBS. After completely removing PBS, plates were scanned on the Licor Odyssey Imager. Images were quantified using Licor Odyssey application software. IC50 values were determined by curve fitting using a Collaborative Drug Discovery database (www.collaborativedrug.com).

[2] = target: T1, PI3K alpha (Homo sapiens, UniProt P42336); test: Luciferase-based luminescence assay (KinaseGlo), PI3K alpha enzymatic activity; format: biochemical; conditions: inhibition of enzymatic activity, 25 μM ATP, read-out: IC50 p110α
T1 construct: purchased Invitrogen Corp., Carlsbad, CA, USA
How it was run: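 KinaseGlo luminescence measured ATP remaining after PIP2 (50 μM) phosphorylation with 25 μM ATP in HEPES pH 7.5 buffer with CHAPS and DTT. Final enzyme was 1.65 nM alpha (1 h reaction) or 6.86 nM delta (2 h reaction). IC50 was curve-fitted from 10 concentrations.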

[3] = target: T2, PI3K gamma (Homo sapiens, UniProt P48736); test: Luciferase-based luminescence assay (ADP Glo), PI3K gamma enzymatic activity; format: biochemical; conditions: inhibition of enzymatic activity, 25 μM ATP, read-out: IC50 p110γ
T2 construct: purchased Invitrogen Corp., Carlsbad, CA, USA
How it was run: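 Final enzyme 4.8 nM PI3K beta or 7.6 nM PI3K gamma, with 50 μM PIP2 and 25 μM ATP, 1 h in HEPES pH 7.5 buffer with MgCl2, EGTA, NaCl, CHAPS and DTT. ADP formed measured by ADP-Glo luminescence; IC50 from 10-point curve fits.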

PI3Kα, sequence (P27986 2-724): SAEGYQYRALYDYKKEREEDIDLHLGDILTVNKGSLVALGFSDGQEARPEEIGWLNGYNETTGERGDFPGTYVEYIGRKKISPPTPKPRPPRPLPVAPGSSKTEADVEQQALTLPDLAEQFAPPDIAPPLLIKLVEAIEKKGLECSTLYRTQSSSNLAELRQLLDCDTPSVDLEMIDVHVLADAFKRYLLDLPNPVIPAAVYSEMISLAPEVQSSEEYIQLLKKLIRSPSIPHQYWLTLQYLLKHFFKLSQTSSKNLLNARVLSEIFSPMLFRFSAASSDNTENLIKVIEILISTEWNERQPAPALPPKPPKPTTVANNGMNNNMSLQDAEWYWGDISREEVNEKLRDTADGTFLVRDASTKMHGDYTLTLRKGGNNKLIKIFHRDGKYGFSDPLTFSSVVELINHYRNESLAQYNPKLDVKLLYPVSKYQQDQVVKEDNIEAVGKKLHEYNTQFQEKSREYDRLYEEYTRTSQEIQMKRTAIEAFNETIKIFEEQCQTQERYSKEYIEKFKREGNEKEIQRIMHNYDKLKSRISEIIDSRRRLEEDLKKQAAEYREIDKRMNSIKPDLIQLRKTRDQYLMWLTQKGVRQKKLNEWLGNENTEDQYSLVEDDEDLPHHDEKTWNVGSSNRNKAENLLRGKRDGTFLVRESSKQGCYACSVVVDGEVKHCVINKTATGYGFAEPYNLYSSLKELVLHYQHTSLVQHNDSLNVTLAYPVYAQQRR
PI3Kα, sequence (P42336 whole entry): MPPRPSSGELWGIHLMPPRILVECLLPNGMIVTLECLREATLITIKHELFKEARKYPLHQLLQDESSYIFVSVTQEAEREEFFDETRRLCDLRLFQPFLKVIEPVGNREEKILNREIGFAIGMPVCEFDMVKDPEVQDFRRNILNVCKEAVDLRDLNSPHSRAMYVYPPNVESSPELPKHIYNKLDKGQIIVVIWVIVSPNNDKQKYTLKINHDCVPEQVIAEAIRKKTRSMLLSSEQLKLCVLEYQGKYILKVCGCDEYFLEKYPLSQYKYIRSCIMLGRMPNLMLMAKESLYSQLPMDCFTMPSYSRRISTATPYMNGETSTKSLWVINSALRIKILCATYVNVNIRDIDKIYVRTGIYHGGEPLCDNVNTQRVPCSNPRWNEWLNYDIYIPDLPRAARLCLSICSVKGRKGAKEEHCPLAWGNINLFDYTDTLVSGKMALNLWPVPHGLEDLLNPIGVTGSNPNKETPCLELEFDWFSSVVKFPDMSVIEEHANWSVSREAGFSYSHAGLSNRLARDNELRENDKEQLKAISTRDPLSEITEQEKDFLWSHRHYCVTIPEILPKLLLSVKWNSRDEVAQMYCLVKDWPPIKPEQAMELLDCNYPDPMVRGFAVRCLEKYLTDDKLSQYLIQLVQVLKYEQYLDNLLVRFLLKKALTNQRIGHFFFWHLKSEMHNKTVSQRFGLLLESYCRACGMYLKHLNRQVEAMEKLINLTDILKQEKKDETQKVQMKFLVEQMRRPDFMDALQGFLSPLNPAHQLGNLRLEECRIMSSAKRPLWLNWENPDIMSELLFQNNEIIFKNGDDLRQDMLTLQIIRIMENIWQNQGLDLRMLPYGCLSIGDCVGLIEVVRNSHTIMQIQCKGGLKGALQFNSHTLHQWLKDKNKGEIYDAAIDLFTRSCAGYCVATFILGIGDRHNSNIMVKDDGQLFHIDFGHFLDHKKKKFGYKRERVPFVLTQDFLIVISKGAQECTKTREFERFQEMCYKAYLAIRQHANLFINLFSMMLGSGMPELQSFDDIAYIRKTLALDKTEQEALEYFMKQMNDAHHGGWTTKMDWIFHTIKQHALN
T1 sequence (P42336 whole entry, species assumed): as the sequence (P42336 whole entry) above
T1 sequence (P27986 whole entry partner, species assumed): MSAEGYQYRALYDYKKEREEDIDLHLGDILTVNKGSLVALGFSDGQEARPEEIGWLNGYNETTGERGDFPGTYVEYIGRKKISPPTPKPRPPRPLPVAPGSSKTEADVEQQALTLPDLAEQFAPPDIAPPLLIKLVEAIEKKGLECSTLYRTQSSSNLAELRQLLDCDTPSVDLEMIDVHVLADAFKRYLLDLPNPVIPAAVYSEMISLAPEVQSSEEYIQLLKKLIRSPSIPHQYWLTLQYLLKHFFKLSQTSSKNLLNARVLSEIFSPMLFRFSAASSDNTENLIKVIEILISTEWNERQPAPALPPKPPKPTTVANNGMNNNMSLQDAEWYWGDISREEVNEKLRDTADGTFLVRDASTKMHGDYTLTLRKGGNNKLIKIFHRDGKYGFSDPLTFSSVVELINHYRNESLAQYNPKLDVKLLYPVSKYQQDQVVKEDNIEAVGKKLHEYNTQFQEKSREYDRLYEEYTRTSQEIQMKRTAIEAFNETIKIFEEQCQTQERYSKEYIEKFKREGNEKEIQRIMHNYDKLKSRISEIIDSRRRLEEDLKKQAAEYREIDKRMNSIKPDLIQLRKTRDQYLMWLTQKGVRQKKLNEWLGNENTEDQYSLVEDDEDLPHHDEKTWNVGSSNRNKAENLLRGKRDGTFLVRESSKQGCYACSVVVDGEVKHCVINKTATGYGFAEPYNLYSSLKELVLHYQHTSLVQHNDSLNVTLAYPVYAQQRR
T2 sequence (P48736 whole entry, species assumed): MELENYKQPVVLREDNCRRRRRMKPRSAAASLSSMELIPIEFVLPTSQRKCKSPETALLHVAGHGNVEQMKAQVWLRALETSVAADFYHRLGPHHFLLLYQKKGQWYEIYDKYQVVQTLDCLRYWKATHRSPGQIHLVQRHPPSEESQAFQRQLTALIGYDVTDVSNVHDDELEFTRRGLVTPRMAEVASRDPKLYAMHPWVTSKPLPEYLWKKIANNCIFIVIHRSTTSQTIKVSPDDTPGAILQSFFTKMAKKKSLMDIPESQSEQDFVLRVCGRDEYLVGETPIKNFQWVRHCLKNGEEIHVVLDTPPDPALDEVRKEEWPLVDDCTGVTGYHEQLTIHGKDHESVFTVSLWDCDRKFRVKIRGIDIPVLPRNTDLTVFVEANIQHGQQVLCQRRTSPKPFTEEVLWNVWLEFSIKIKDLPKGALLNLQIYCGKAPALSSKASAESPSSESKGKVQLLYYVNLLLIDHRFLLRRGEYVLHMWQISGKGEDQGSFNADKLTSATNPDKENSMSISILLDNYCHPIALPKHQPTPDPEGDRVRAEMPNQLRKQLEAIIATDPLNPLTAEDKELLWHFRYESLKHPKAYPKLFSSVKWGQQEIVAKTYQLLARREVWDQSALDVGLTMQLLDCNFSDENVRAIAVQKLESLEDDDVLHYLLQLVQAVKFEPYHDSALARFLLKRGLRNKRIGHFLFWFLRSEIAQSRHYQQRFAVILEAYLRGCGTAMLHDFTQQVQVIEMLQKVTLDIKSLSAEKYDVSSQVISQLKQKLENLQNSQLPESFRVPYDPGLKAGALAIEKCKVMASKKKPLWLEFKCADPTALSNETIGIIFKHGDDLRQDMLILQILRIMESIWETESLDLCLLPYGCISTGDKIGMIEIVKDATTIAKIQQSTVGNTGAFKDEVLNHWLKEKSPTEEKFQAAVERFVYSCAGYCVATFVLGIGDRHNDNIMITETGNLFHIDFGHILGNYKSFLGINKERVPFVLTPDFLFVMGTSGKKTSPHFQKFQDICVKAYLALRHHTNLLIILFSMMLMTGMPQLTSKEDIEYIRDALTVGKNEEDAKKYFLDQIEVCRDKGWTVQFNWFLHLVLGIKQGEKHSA

Row | IC50 [1] | IC50 [2] | IC50 [3] | SMILES
1 | > 500 nM | > 500 nM | > 500 nM | CCN1CCC(c2ccccc2CC(C)(C)Nc2nc(N3CCOCC3)nc(-n3c(C(F)F)nc4ccccc43)n2)CC1 [Compound A70, 4-(2-(difluoromethyl)-1H-benzo[d]imidazol-1-yl)-N-(1-(2-(1-ethylpiperidin-4-yl)phenyl)-2-methylpropan-2-yl)-6-morpholino-1,3,5-triazin-2-amine]
2 | 200 to 500 nM | 100 to 200 nM | ≤ 100 nM | CC(=O)N1CCC(c2ccccc2CC(C)(C)Nc2nc(N3CCOCC3)nc(-n3c(C(F)F)nc4ccccc43)n2)CC1 [Compound A72, 4-(2-(difluoromethyl)-1H-benzo[d]imidazol-1-yl)-N-(2-methyl-1-(2-(1-acetylpiperidin-4-yl)phenyl)propan-2-yl)-6-morpholino-1,3,5-triazin-2-amine]
3 | 200 to 500 nM | 200 to 500 nM | 100 to 200 nM | CC(C)(Cc1ccccc1C1CCN(S(C)(=O)=O)CC1)Nc1nc(N2CCOCC2)nc(-n2c(C(F)F)nc3ccccc32)n1 [Compound A73, 4-(2-(difluoromethyl)-1H-benzo[d]imidazol-1-yl)-N-(2-methyl-1-(2-(1-(methylsulfonyl)piperidin-4-yl)phenyl)propan-2-yl)-6-morpholino-1,3,5-triazin-2-amine]

The remaining lines, values behind:

Row | SMILES | IC50 [1] | IC50 [2] | IC50 [3]
4 | CC(C)N1CCC(c2ccccc2CC(C)(C)Nc2nc(N3CCOCC3)nc(-n3c(C(F)F)nc4ccccc43)n2)CC1 [Compound A71, 4-(2-(difluoromethyl)-1H-benzo[d]imidazol-1-yl)-N-(1-(2-(1-isopropylpiperidin-4-yl)phenyl)-2-methylpropan-2-yl)-6-morpholino-1,3,5-triazin-2-amine] | > 500 nM | > 500 nM | > 500 nM
5 | CC(C)(Cc1ccccc1C1CCNC1)Nc1nc(N2CCOCC2)nc(-n2c(C(F)F)nc3ccccc32)n1 (stereo not drawn) [Compound A74, 4-(2-(difluoromethyl)-1H-benzo[d]imidazol-1-yl)-N-(2-methyl-1-(2-(pyrrolidin-3-yl)phenyl)propan-2-yl)-6-morpholino-1,3,5-triazin-2-amine] | > 500 nM | > 500 nM | > 500 nM
6 | CN(C)CCCc1ccccc1CC(C)(C)Nc1nc(N2CCOCC2)nc(-n2c(C(F)F)nc3ccccc32)n1 [Compound A76, 4-(2-(difluoromethyl)-1H-benzo[d]imidazol-1-yl)-N-(1-(2-(3-(dimethylamino)propyl)phenyl)-2-methylpropan-2-yl)-6-morpholino-1,3,5-triazin-2-amine] | > 500 nM | > 500 nM | > 500 nM
